Measurements from patent US10519177B2, “Heterocyclic compounds and uses thereof” (Plexxikon Inc., priority 2013, dated 2019).
Like-named read-outs stand apart in the source and are kept apart here.

What was measured:
BRD4-BD1 (44-164) = BRD4-BD1 (44-164) (Homo sapiens (Human), UniProt O60885); experiment: Alphascreen binding assay BRD4-BD1; details: BRD4(1) H4; read-out: Biochemical activity (IC50 μM) BRD4(1) H4
Method: Binding of compounds of formula (I) with bromodomain 2, 3 4 was assessed using Alphascreen binding assay. The inhibition of the interaction between bromodomain and its acetylated target protein (Filippakopoulos P et al. 2012) was measured quantitatively using recombinant BRD proteins, an acetylated Histone 4 peptide and AlphaScreen™ technology. In absence of inhibition the BRD protein bound to AlphaScreen™ nickel chelate acceptor beads can interact with the acetylated Histone 4 peptide which is immobilized by the AlphaScreen™ Streptavidin coated beads. This interaction brings donor and acceptor beads in proximity. The close proximity allows the singlet oxygen produced by laser excitation of the donor beads to reach the acceptor beads and generate a luminescence signal.
Recombinant human bromodomains containing the N-terminal bromodomain (BRD2-BD1 (71-194), BRD3-BD1 (24-144) and BRD4-BD1 (44-164)) or dual bromodomains (BRD4-BD12 (1-477), BRD4-BD12 (1-472)) were prepared and purified as described in protein expression and purification session. The peptide is human Histone H41-21K5AcK8AcK12AcK16Ac-Biotin (Anaspec CA, USA).
Protocol for BRD2, BRD3 and BRD4 assay: All components are prepared in buffer composed of 50 mM HEPES pH 7.5, 100 mM NaCl, 0.01% bovine serum albumin (“BSA”), 0.01% Triton X-100, 2 mM dithiothreitol (“DTT”). 7 μL of Bromodomain protein and 7 μL of peptide are added to wells containing 1 μL of various concentrations of test compounds of formula (I) or DMSO vehicle in an Alphaplate (PerkinElmer GA, USA) and incubated for 1 hour at room temperature. 4 μL donor and acceptor bead mixture is then added with final concentrations of 7.5 μg/ml. 30 minutes after bead addition, Alpha signal is read on the Envision spectrometer (λEx 680 nm, λEm 520-620 nm). Final concentrations of bromodomain proteins and peptide are as shown below.
All data was normalized to the mean of 16 high and 16 low control wells on each plate. A four parameter curve fit of the following formula was then applied: Y=a+(b−a)/(1+(x/c)^d) Where ‘a’ is the minimum, ‘b’ is the maximum, ‘c’ is the pIC50 and ‘d’ is the Hill slope. Protein Expression and Purification
Recombinant human bromodomains containing the N-terminal bromodomain (BRD2-BD1 (71-194), BRD3-BD1 (24-144) and BRD4-BD1 (44-164)) or dual bromodomains (BRD4-BD12 (1-477), BRD4-BD12 (1-472)) were expressed in E. coli cells (in a modified pET vector) with an N-terminal six-His tag and purified using a combination of both IMAC (Ni-affinity) and size exclusion chromatography steps.
Recombinant BRD proteins were expressed using the E. coli strain BL21-CodonPlus (DE3) (Agilent Technologies CA, USA). Cells were grown in Terrific Broth (TB) media to an OD600 of 1.2 at 37° C. at which temperature was reduced to 25° C., protein was induced with 1.0 mM ispropyl-β-D-thiogalactopyranoside (“IPTG”) for 12-18 hours and harvested by centrifugation at 8000×g for 20 minutes. Cells were re-suspended in 0.1M K2PO4 pH 8.0, 250 mM NaCl, 10% Glycerol, 0.75% NP-40, 25 mM Imidazole, 5 mM beta-mercaptoethanol (“BME”) with 0.2 mg/ml Lysosyme, 2.0 mM phenylmethanesulfonyl fluoride (“PMSF”), 25 μg/ml DNAse I, incubated on ice for 30 minutes and lyzed with a cell disruptor (MicroFluidics MA, USA). The lysate was clarified by centrifugation at 20,000×g for 2 hours. The protein was captured with Ni-NTA resin (Life Technologies, USA). Contaminating proteins were washed off with 25 mM Tris-HCl pH 8.3, 250 mM NaCl, 12% Glycerol and 50 mM Imidazole. Following 3× wash steps, protein was eluted step wise using a 50 mM HEPES pH 7.5, 500 mM NaCl and 400 mM Imidazole. The protein was further purified using Gel Filtration column 26/600 Superdex 200 (GE Biosciences NJ, USA) in 50 mM HEPES pH 7.5, 250 mM NaCl. The protein was aliquoted and flash-frozen in liquid Nitrogen.

BRD4-BD12 (1-477) = BRD4-BD12 (1-477) (Homo sapiens (Human), UniProt O60885); experiment: Alphascreen binding assay BRD4-BD12; details: BRD4(1 2) H4; read-out: Biochemical activity (IC50 μM) BRD4(1 2) H4
How it was run: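 First, compound was preincubated 1 h at room temperature with the His-tagged BRD4 protein (BD1 44-164 or tandem BD12 1-477) and acetylated H4 peptide. Next, donor and acceptor beads were added at 7.5 μg/ml final. After 30 min, AlphaScreen emission was recorded.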

MV-4-11 cells = experiment: Oncology cell growth assay MV-4-11 (CellTiter Glo); type: cell-based; details: Homo sapiens, MV4-11, 72 h, read-out: Cell activity (IC50 μM) MV-4-11 3d-Growth
How it was run: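 MV-4-11 AML cells (MLL-AF4), 3000 per well, exposed to 8-point 1:3 compound titration from 10 μM top concentration (0.2% DMSO) for 72 h. Viability by CellTiter Glo luminescence, normalized to DMSO controls; pIC50 from four-parameter curve fit.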

bromodomain = experiment: at least one of the bromodomain cell assays of Example 57; type: cell-based; details: at least one of the bromodomain cell assays described in Example 57; read-out: IC50 in at least one of the bromodomain cell assays

Compound `Cc1noc(C)c1-c1cnc2c(-c3cnn(C(F)F)c3)cn(S(=O)(=O)C3CCCC3)c2c1` [P-0133, 4-[1-cyclopentylsulfonyl-3-[1-(difluoromethyl)pyrazol-4-yl]pyrrolo[3,2-b]pyridin-6-yl]-3,5-dimethyl-isoxazole] has an IC50 (BRD4-BD1 (44-164)) of under 1 µM.
In the case of `CCNC(=O)N1CCC(Cc2cn(C)c3ncc(-c4c(C)noc4C)cc23)CC1` [P-0117, 4-[[5-(3,5-dimethylisoxazol-4-yl)-1-methyl-pyrrolo[2,3-b]pyridin-3-yl]methyl]-N-ethyl-piperidine-1-carboxamide], the IC50 (BRD4-BD1 (44-164)) is reported as under 1 µM.
Compound `Cc1noc(C)c1-c1cnc2c(-c3cccnc3)cn(S(=O)(=O)c3ccccc3)c2c1` [P-0084, 4-[1-(benzenesulfonyl)-3-(3-pyridyl)pyrrolo[3,2-b]pyridin-6-yl]-3,5-dimethyl-isoxazole] has an IC50 (BRD4-BD1 (44-164)) of under 1 µM.
For `CCS(=O)(=O)n1cc(C(OC)C2CCC(F)(F)CC2)c2cc(-c3c(C)noc3C)cnc21` (stereo not shown) [P-0078, 4-[3-[(4,4-difluoro-cyclohexyl)-methoxy-methyl]-1-ethylsulfonyl-pyrrolo[2,3-b]pyridin-5-yl]-3,5-dimethyl-isoxazole], the IC50 (BRD4-BD1 (44-164)) was under 1 µM.
With `Cc1noc(C)c1-c1cnc2ccn(Cc3ccccc3)c2c1` [P-0162, 4-(1-benzylpyrrolo[3,2-b]pyridin-6-yl)-3,5-dimethyl-isoxazole] the IC50 (BRD4-BD1 (44-164)) was under 1 µM.
For `Cc1noc(C)c1-c1cnc2c(c1)c(CC1CCN(C(=O)c3ccccc3)CC1)cn2C` [P-0115, [4-[[5-(3,5-dimethylisoxazol-4-yl)-1-methyl-pyrrolo[2,3-b]pyridin-3-yl]methyl]-1-piperidyl]-phenyl-methanone], the IC50 (BRD4-BD1 (44-164)) was under 1 µM.
`C=CCn1cc(-c2cn(S(=O)(=O)CC3CC3)c3cc(-c4c(C)noc4C)cnc23)cn1` [P-0140, 4-[3-(1-allylpyrazol-4-yl)-1-(cyclopropyl-methylsulfonyl)pyrrolo[3,2-b]pyridin-6-yl]-3,5-dimethyl-isoxazole] gave an IC50 (BRD4-BD1 (44-164)) of under 1 µM.
Compound `CCCCS(=O)(=O)n1ccc2ncc(-c3c(C)noc3C)cc21` [P-0036, 4-(1-butylsulfonylpyrrolo[3,2-b]pyridin-6-yl)-3,5-dimethyl-isoxazole] has an IC50 (BRD4-BD1 (44-164)) of under 1 µM.
Compound `CC(=O)N1CCC(Cc2cn(C)c3ncc(-c4c(C)noc4C)cc23)CC1` [P-0120, 1-[4-[[5-(3,5-dimethylisoxazol-4-yl)-1-methyl-pyrrolo[2,3-b]pyridin-3-yl]methyl]-1-piperidyl]ethanone] has an IC50 (BRD4-BD1 (44-164)) of under 1 µM.
In the case of `Cc1noc(C)c1-c1cnc2c(-c3cnn(C(F)F)c3)cn(S(=O)(=O)c3ccccc3F)c2c1` [P-0132, 4-[3-[1-(difluoromethyl)pyrazol-4-yl]-1-(2-fluorophenyl)sulfonyl-pyrrolo[3,2-b]pyridin-6-yl]-3,5-dimethyl-isoxazole], the IC50 (BRD4-BD1 (44-164)) is reported as under 1 µM.
For `COc1ncc(F)cc1C(O)c1c[nH]c2ncc(-c3c(C)noc3C)cc12` (stereo not shown) [P-0022, [5-(3,5-dimethylisoxazol-4-yl)-1H-pyrrolo[2,3-b]pyridin-3-yl]-(5-fluoro-2-methoxy-3-pyridyl)methanol], the IC50 (BRD4-BD1 (44-164)) was under 1 µM.
Compound `COC(c1cn(S(=O)(=O)C2CCCCC2)c2cc(-c3c(C)noc3C)cnc12)C1CC1` (stereo not shown) [P-0071, 4-[1-cyclohexyl-sulfonyl-3-[cyclopropyl(methoxy)methyl]pyrrolo[3,2-b]pyridin-6-yl]-3,5-dimethyl-isoxazole] has an IC50 (BRD4-BD1 (44-164)) of under 1 µM.
`CCc1[nH]c2ncc(-c3c(C)noc3C)cc2c1C(O)c1ccccc1Cl` (stereo not shown) [P-0042, (2-chlorophenyl)-[5-(3,5-dimethylisoxazol-4-yl)-2-ethyl-1H-pyrrolo[2,3-b]pyridin-3-yl]methanol] gave an IC50 (BRD4-BD1 (44-164)) of under 1 µM.
`Cc1noc(C)c1-c1cnc2c(-c3cn[nH]c3)cn(C(C)c3ccccc3)c2c1` (stereo not shown) [P-0199, 3,5-dimethyl-4-[1-(1-phenyl-ethyl)-3-(1H-pyrazol-4-yl)pyrrolo[3,2-b]pyridin-6-yl]isoxazole] gave an IC50 (BRD4-BD1 (44-164)) of under 1 µM.
`Cc1noc(C)c1-c1cnc2[nH]cc(C(=O)C3CCC(F)(F)CC3)c2c1` [P-0031, (4,4-difluorocyclohexyl)-[5-(3,5-dimethylisoxazol-4-yl)-1H-pyrrolo[2,3-b]pyridin-3-yl]methanone] was tested, and the IC50 (BRD4-BD1 (44-164)) was under 1 µM.
For `Cc1noc(C)c1-c1cnc2c(-c3ccccc3)cn(S(=O)(=O)c3ccccc3)c2c1` [P-0077, 4-[1-(benzenesulfonyl)-3-phenyl-pyrrolo[3,2-b]pyridin-6-yl]-3,5-dimethyl-isoxazole], the IC50 (BRD4-BD1 (44-164)) was under 1 µM.
Work on `Cc1nn(C)cc1-c1cn(CC2CCC(F)(F)CC2)c2cc(-c3c(C)noc3C)cnc12` [P-0395, 4-[1-[(4,4-difluorocyclohexyl)methyl]-3-(1,3-dimethylpyrazol-4-yl)pyrrolo[3,2-b]pyridin-6-yl]-3,5-dimethyl-isoxazole] yielded an IC50 (BRD4-BD12 (1-477)) of under 1 µM, an IC50 (MV-4-11 cells) of under 1 µM and an IC50 (bromodomain) of under 10000 nM.
`Cc1noc(C)c1-c1cnc2c(-c3ccc(NC(=O)NC4CC4)cc3)cn(CC3CCC(F)(F)CC3)c2c1` [P-0562, 1-cyclopropyl-3-[4-[1-[(4,4-difluorocyclohexyl)methyl]-6-(3,5-dimethylisoxazol-4-yl)pyrrolo[3,2-b]pyridin-3-yl]phenyl]urea] gave an IC50 (BRD4-BD12 (1-477)) of under 1 µM, an IC50 (MV-4-11 cells; MV-4-11, 3d growth) of under 1 µM and an IC50 (bromodomain) of under 10000 nM.
`Cc1noc(C)c1-c1cnc2c(-c3ccc(C4(C(=O)O)CC4)cc3)cn(CC3(F)CCCCC3)c2c1` [P-0385, 1-[4-[6-(3,5-dimethylisoxazol-4-yl)-1-[(1-fluorocyclohexyl)methyl]pyrrolo[3,2-b]pyridin-3-yl]phenyl]cyclopropanecarboxylic acid] gave an IC50 (BRD4-BD12 (1-477)) of under 1 µM, an IC50 (MV-4-11 cells) of under 1 µM and an IC50 (bromodomain) of under 10000 nM.
`Cc1noc(C)c1-c1cnc2c(-c3ccc(O)c(F)c3)cn(CC3(F)CCCCC3)c2c1` [P-0500, 4-[6-(3,5-dimethylisoxazol-4-yl)-1-[(1-fluorocyclohexyl)methyl]pyrrolo[3,2-b]pyridin-3-yl]-2-fluoro-phenol] gave an IC50 (BRD4-BD12 (1-477)) of under 1 µM, an IC50 (MV-4-11 cells; MV-4-11, 3d growth) of under 1 µM and an IC50 (bromodomain) of under 10000 nM.
Compound `Cc1noc(C)c1-c1cnc2c(-c3cnn(CC(F)(F)F)c3)cn(Cc3ccc(F)cc3)c2c1` [P-0366, 4-[1-[(4-fluorophenyl)methyl]-3-[l-(2,2,2-trifluoroethyl)pyrazol-4-yl]pyrrolo[3,2-b]pyridin-6-yl]-3,5-dimethyl-isoxazole] has an IC50 (BRD4-BD12 (1-477)) of under 1 µM, an IC50 (MV-4-11 cells) of under 1 µM and an IC50 (bromodomain) of under 10000 nM.
`Cc1noc(C)c1-c1cnc2c(-c3ccc(C(=O)O)cc3)cn(Cc3ccccc3)c2c1` [P-0375, 4-[1-benzyl-6-(3,5-dimethylisoxazol-4-yl)pyrrolo[3,2-b]pyridin-3-yl]benzoic acid] was tested, and the IC50 (BRD4-BD12 (1-477)) was under 1 µM, the IC50 (MV-4-11 cells) was under 1 µM and the IC50 (bromodomain) was under 10000 nM.
